# Measured values reported in patent publication US20100144854A1 (priority 2007, published 2010).
# Experiments:
# [1] = test system: Melanoma of the left lower leg; assay: Example 11: patient with melanoma treated with 5% rhodamine 6G ointment; assay type: in vivo, human; details: Patient Sh., 75
# [2] = test system: adenocarcinoma of the large intestine; assay: Example 6: patient with large intestine adenocarcinoma and liver metastases treated with rhodamine 6G; assay type: in vivo, human; design: Nuclear segments / Lymphocytes (line r11) / Erythrocytes / Hemoglobin / Thrombocytes / Leukocytes / Amylase / Chlorine / Serum iron / Cholesterol / Total bilirubin / Bilirubin (line r8, above 'direct'): unit not given here; details: for Erythrocytes / Hemoglobin / Leukocytes / Thrombocytes / Eosinophils / Cholesterol / Monocytes / Total bilirubin / Potassium / ALT / AST / Bilirubin (line r8, above 'direct') / Serum iron / Lymphocytes (line r11) / Nuclear segments / Total protein / Creatinine / Amylase / Chlorine / Indirect bilirubin fraction / direct (line r9) / indirect (line r11) / Basophils / Nuclear rods: Example 6, Patient N; for Eosinophils: normal 0-5; for Cholesterol: normal 1.66-8.3; for Monocytes: normal 2-9%; for Total bilirubin: normal 2.90-6.54; for Potassium: normal 3.5-6.0; for ALT / AST: normal 5-40; for Bilirubin (line r8, above 'direct'): normal 8.5-20.5; for Serum iron: normal 8.8-27.0; for Lymphocytes (line r11): normal 18-; for Nuclear segments: normal 45-70; for Total protein: normal 65.0-80; for Creatinine: normal 85.0; for Amylase: normal 95-110.0; for Chlorine: normal 135.0-; for Indirect bilirubin fraction / direct (line r9): normal to 25%; for indirect (line r11): normal to 100; for Basophils: normal 0-1%; for Nuclear rods: normal 1-6%
# Procedure: Patient N. Diagnosis: adenocarcinoma of the large intestine. Metastases in the liver. Ascites. Three years previously a resection of the large intestine was performed with insertion of an anastomosis end to end. A full course of polychemo-therapy was given. Two years after the treatment the patient complained of pain in the bottom of the abdomen and tenesmus. The patient presented complaining of acute weakness, constant pain in the abdomen, coughing, dyspnea, ascites, retention of stools. Patient's condition serious, loss of appetite, pale cyanosed skin, abdomen with signs of ascites. […] A lump of irregular shape 2×4 cm in size with irregular edges was detected by computerized tomography in the right renal lobe. A large lump 4×5.4 cm in size and free liquid in the peritoneal cavity were also detected. […] The infusions were administered weekly over the course of 3 months. […] The enemas were administered three times a week over the course of 2 months. […] In the third week of treatment the dyspnea was less severe. In the course of treatment the tumor in the region of the anastomosis decreased in size to 0.2×0.3 cm. After 3 months the treatment was discontinued for 1 month, and was then resumed for a further 2 months.
# [3] = Patient N, over the course of the treatment (3 months, 1 month pause, 2 months)
substance,measurement,setting,value
"9-(2-ethoxycarbonyl)phenyl)-3,6-bis(ethylamino)2,7-dimethylxanthyl chloride [rhodamine 6G]",decrease of sizes of the tumors,"[1]; 5% ointment, over 2 months, before 5×7×9 cm",70%
same,recurrence of the melanoma,[1]; over 3 years,no recurrence
same,Erythrocytes,[2]; 09 Dec. 2004,4.44
same,Hemoglobin,[2]; 09 Dec. 2004,115
same,Leukocytes,[2]; 09 Dec. 2004,5.2
same,Thrombocytes,[2]; 09 Dec. 2004,326
same,Eosinophils,[2]; 09 Dec. 2004,2
same,Cholesterol,[2]; 09 Dec. 2004,5.75
same,Monocytes,[2]; 09 Dec. 2004,10%
same,Total bilirubin,[2]; 09 Dec. 2004,8.4
same,Potassium,[2]; 09 Dec. 2004,2.28
same,ALT,[2]; 09 Dec. 2004,69.2 el
same,AST,[2]; 09 Dec. 2004,45.7 el
same,"Bilirubin (line r8, above 'direct')",[2]; 09 Dec. 2004,3.3
same,Serum iron,[2]; 09 Dec. 2004,54.8
same,Lymphocytes (line r11),[2]; 09 Dec. 2004,58
same,Nuclear segments,[2]; 09 Dec. 2004,6
same,Total protein,[2]; 09 Dec. 2004,65 g/L
same,Creatinine,[2]; 09 Dec. 2004,74 µM
same,Amylase,[2]; 09 Dec. 2004,102.8
same,Chlorine,[2]; 09 Dec. 2004,114.31
same,Indirect bilirubin fraction,[2]; 09 Dec. 2004,84%
same,direct (line r9),[2]; 09 Dec. 2004,5.1%
same,indirect (line r11),[2]; 09 Dec. 2004,89 el
same,Erythrocytes,[2]; 09 Jan. 2005,4.87
same,Hemoglobin,[2]; 09 Jan. 2005,128
same,Leukocytes,[2]; 09 Jan. 2005,5.3
same,Thrombocytes,[2]; 09 Jan. 2005,440
same,Basophils,[2]; 09 Jan. 2005,1%
same,Eosinophils,[2]; 09 Jan. 2005,1
same,Nuclear rods,[2]; 09 Jan. 2005,2%
same,Cholesterol,[2]; 09 Jan. 2005,7.03
same,Monocytes,[2]; 09 Jan. 2005,12%
same,Total bilirubin,[2]; 09 Jan. 2005,8.0
same,Potassium,[2]; 09 Jan. 2005,2.15
same,ALT,[2]; 09 Jan. 2005,79 el
same,AST,[2]; 09 Jan. 2005,29.5 el
same,"Bilirubin (line r8, above 'direct')",[2]; 09 Jan. 2005,2.0
same,Serum iron,[2]; 09 Jan. 2005,42.9
same,Lymphocytes (line r11),[2]; 09 Jan. 2005,69
same,Nuclear segments,[2]; 09 Jan. 2005,5
same,Total protein,[2]; 09 Jan. 2005,82.53 g/L
same,Creatinine,[2]; 09 Jan. 2005,69 µM
same,Amylase,[2]; 09 Jan. 2005,110.0
same,Chlorine,[2]; 09 Jan. 2005,134.2
same,Indirect bilirubin fraction,[2]; 09 Jan. 2005,90%
same,direct (line r9),[2]; 09 Jan. 2005,6.0%
same,indirect (line r11),[2]; 09 Jan. 2005,78.0 el
same,Erythrocytes,[2]; 9 Oct. 2004,3.20
same,Hemoglobin,[2]; 9 Oct. 2004,74
same,Leukocytes,[2]; 9 Oct. 2004,9.2
same,Thrombocytes,[2]; 9 Oct. 2004,120
same,Basophils,[2]; 9 Oct. 2004,1%
same,Eosinophils,[2]; 9 Oct. 2004,1
same,Nuclear rods,[2]; 9 Oct. 2004,0%
same,Cholesterol,[2]; 09 Oct. 2004,6.21
same,Monocytes,[2]; 9 Oct. 2004,36%
same,Total bilirubin,[2]; 09 Oct. 2004,11.0
same,Potassium,[2]; 09 Oct. 2004,2.72
same,ALT,[2]; 09 Oct. 2004,465.8 el
same,AST,[2]; 09 Oct. 2004,265.7 el
same,"Bilirubin (line r8, above 'direct')",[2]; 09 Oct. 2004,3.0
same,Serum iron,[2]; 09 Oct. 2004,190.4
same,Lymphocytes (line r11),[2]; 9 Oct. 2004,35
same,Nuclear segments,[2]; 9 Oct. 2004,2
same,Total protein,[2]; 09 Oct. 2004,51.23 g/L
same,Creatinine,[2]; 09 Oct. 2004,118 µM
same,Amylase,[2]; 09 Oct. 2004,114.0
same,Chlorine,[2]; 09 Oct. 2004,114.20
same,Indirect bilirubin fraction,[2]; 09 Oct. 2004,82%
same,direct (line r9),[2]; 09 Oct. 2004,8.0%
same,indirect (line r11),[2]; 09 Oct. 2004,107.2 el
same,Cholesterol,[2]; 24. Nov. 2004,5.62
same,Total bilirubin,[2]; 24. Nov. 2004,24.2
same,Potassium,[2]; 24. Nov. 2004,2.32
same,ALT,[2]; 24. Nov. 2004,326 el
same,AST,[2]; 24. Nov. 2004,125.8 el
same,"Bilirubin (line r8, above 'direct')",[2]; 24. Nov. 2004,22.3
same,Serum iron,[2]; 24. Nov. 2004,104.7
same,Total protein,[2]; 24. Nov. 2004,62.26 g/L
same,Creatinine,[2]; 24. Nov. 2004,89 µM
same,Amylase,[2]; 24. Nov. 2004,140
same,Chlorine,[2]; 24. Nov. 2004,115.3
same,Indirect bilirubin fraction,[2]; 24. Nov. 2004,96%
same,direct (line r9),[2]; 24. Nov. 2004,11.9%
same,indirect (line r11),[2]; 24. Nov. 2004,102 el
same,Erythrocytes,[2]; 24 Nov. 2004,3.84
same,Hemoglobin,[2]; 24 Nov. 2004,90
same,Leukocytes,[2]; 24 Nov. 2004,12.0
same,Thrombocytes,[2]; 24 Nov. 2004,210
same,Eosinophils,[2]; 24 Nov. 2004,2
same,Nuclear rods,[2]; 24 Nov. 2004,1%
same,Monocytes,[2]; 24 Nov. 2004,12%
same,Lymphocytes (line r11),[2]; 24 Nov. 2004,49
same,Nuclear segments,[2]; 24 Nov. 2004,6
same,feeling of pain,"[2]; Patient N, 55, ten days after start, i.v. infusions, enemas, oral solution",completely disappeared
same,body weight,"[2]; Patient N, after treatment",Weight regained
same,blood indices,"[2]; Patient N, during treatment",marked step-wise improvement
same,symptoms complained of,"[2]; Patient N, in 2 years",no symptoms
same,metastases in the liver,[2]; [3],no metastases were detected
same,tumor in the region of the anastomosis,[2]; [3],no tumor was detected
same,dyspnea,"[2]; Patient N, third week of treatment",less severe
